According to ChEMBL document CHEMBL4825694 (Eur J Med Chem, 2021):

Experiments:
[1] = biological target: T1, Peroxisome proliferator-activated receptor gamma (Homo sapiens, UniProt P37231); assay: Binding affinity to GAL4-DBD-fused PPARgamma ligand binding domain (unknown origin) expressed in HEK293T cells by spectra-fluorophotometry analysis
T1 sequence (P37231 whole entry): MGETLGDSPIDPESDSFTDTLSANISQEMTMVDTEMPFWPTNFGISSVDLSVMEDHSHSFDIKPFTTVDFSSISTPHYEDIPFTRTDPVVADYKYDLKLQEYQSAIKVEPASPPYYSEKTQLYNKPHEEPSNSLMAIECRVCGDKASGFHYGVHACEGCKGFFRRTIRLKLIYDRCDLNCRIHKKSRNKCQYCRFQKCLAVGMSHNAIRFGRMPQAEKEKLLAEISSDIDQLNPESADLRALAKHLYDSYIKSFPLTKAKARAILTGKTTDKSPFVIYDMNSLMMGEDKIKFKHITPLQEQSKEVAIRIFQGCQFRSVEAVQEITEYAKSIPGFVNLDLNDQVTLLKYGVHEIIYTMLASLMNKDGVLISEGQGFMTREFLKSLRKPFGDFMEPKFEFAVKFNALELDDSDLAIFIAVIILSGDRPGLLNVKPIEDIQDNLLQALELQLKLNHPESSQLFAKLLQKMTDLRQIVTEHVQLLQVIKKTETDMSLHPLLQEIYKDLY

[2] = biological target: T1, Peroxisome proliferator-activated receptor gamma; assay: Partial agonist activity at GAL4 DBD-fused PPARgamma LBD (unknown origin) expressed in pG5 luc and pBIND transfected HEK293T cells assessed as transcriptional activation incubated for 12 hrs by fluorescence based luciferase assay
[3] = biological target: T2, Prostaglandin G/H synthase 2 (Homo sapiens, UniProt P35354)
T2 sequence (P35354 whole entry): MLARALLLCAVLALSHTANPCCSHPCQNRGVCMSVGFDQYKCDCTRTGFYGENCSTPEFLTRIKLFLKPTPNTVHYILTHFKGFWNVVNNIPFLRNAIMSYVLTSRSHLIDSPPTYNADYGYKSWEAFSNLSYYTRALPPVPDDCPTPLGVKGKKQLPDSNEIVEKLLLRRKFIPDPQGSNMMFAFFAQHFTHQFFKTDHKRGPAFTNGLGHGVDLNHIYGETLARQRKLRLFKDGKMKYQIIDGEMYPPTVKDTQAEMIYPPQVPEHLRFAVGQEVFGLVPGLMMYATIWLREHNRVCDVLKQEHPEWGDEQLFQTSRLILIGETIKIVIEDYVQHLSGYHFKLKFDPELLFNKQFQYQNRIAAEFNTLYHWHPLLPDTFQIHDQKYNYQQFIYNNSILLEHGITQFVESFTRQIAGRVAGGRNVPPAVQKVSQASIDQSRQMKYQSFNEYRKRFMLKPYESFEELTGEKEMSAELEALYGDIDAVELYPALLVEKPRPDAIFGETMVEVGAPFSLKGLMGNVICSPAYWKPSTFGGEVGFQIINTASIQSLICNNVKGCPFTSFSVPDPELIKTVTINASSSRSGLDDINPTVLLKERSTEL

Kd [1] | EC50 [2] | IC50 [3] | Compound
> 100 µM | 22.7 µM | – | CC1=C(CC(=O)O)c2cc(F)ccc2/C1=C\c1ccc([S+](C)[O-])cc1 (configuration not stated)
2.46 µM | 5.3 µM | – | COc1cccc(/C=C2/C(C)=C(CC(=O)O)c3cc(F)ccc32)c1
> 100 µM | > 50 µM | – | CC1=C(CC(=O)O)c2cc(F)ccc2/C1=C\c1ccc(C(C)C)cc1
> 100 µM | > 50 µM | – | CC1=C(CC(=O)O)c2cc(F)ccc2/C1=C\c1ccc(Oc2ccccc2)cc1
> 100 µM | > 50 µM | – | CC1=C(CC(=O)O)c2ccccc2/C1=C/c1cccc(C)c1
> 100 µM | > 50 µM | – | CC1=C(CC(=O)O)c2ccccc2/C1=C\c1cccc(C)c1
– | – | 286 µM | CC1=C(CC(=O)O)c2cc(F)ccc2/C1=C\c1cccc(OCc2ccccc2)c1
> 100 µM | > 50 µM | – | CC1=C(CC(=O)O)c2cc(F)ccc2/C1=C\c1ccc(OCc2ccccc2)cc1
6.67 µM | 11.7 µM | – | CC1=C(CC(=O)O)c2cc(F)ccc2/C1=C\c1ccc(F)cc1
